Test system: direct pancreatic cancer xenografts (fine needle aspiration cells)
Experiment: Ex vivo perturbability assay, low-density microarray RT-PCR
Format: cell-based
Set-up: key to RRM1 gene expression / NFKB1 gene expression / BNIP3L gene expression / VHL gene expression / DCK gene expression / HIF1B gene expression / IGF1R gene expression / MAPK1 gene expression / MAP2K2 gene expression / JUN gene expression / IHH gene expression: % of untreated control (treated sample normalized to untreated)
Conditions: treated normalized to untreated control
Text: Direct pancreatic cancer derived xenografts: Resected pancreatic adenocarcinomas are routinely implanted in nude mice at the Johns Hopkins Medical Institutions as a method to obtain enriched populations of neoplastic cells under an IRB-approved protocol from residual pancreatic cancer tumors. Tumor specimens from Whipple resection specimens were divided into 2-3 mm^3 pieces in antibiotic-containing RPMI media. Pieces of non-necrotic tissue were selected and immersed in Matrigel. Under anesthesia with isofluorane, tumors were implanted into five-to-six week-old female athymic (nu/nu) mice purchased from Harlan (Harlan Laboratories, Washington, D.C.). This research protocol was approved by the Johns Hopkins University Animal Use and Care Committee arid animals were maintained in accordance to guidelines of the American Association of Laboratory Animal Care. Tumors were propagated to subsequent cohorts of mice until a sufficient number were available for drug testing.
Fine needle aspiration (FNA): FNAs on mice were performed according to standard cytopathologic practice using 10 cc syringes and 25-gauge needles. The procedure was performed under inhaled general anesthesia with isofluorane. During each FNA procedure the first pass was smeared onto glass slides and used for morphologic analysis and quality control, (DiffQuik™ and Papanicoloau), and the second through sixth passes were used to acquire viable cells.
Ex vivo assay: FNA passes used to acquire viable cells were immediately transferred into 10 ml sterile prewarmed complete RPMI-1640 culture medium containing 10% FBS, penicillin (200 ug/ml), and streptomycin (200 ug/ml). Equivalent aliquots of cells were seeded in two wells of a 6-well polypropylene microplate. […] Following treatment, non-adherent and adherent cells (collected by scraping) were pooled together in a 1.5 mL microcentrifuge tube and centrifuged at 500 g for 5 mm at 4° C. After washing with PBS, cells were lysed in 100 μL of ice-cold RLT.
RNA extraction and cDNA generation: Total RNA was extracted from cells using the RNeasy™ Mini Kit (Qiagen, Valencia, Calif.) following the manufacturer's instructions. cDNA was synthesized using iScript cDNA synthesis kit (Bio-Rad) following the manufacturer's instructions.
Low-density micro arrays (LDMA): The samples were run in a customized assay with a 384-well format (ABI, Foster City, Calif.), where the expression of 45 to 381 relevant genes can be quantitatively tested. For this example, the array was designed with 8 replicated sections containing 48 wells, with primers of one gene per well: 3 housekeeping genes (HK: UBC, HPRT, SDHA), and 45 genes of interest. 50 μL of cDNA plus 50 μL of ABI mastermix were loaded onto each of two contiguous lanes to have duplicated readouts of every sample, and were run by real-time reverse transcriptase PCR (RT-PCR). The amount of change in the target genes was calculated by comparing the threshold cycle (CT) of each gene to the geometric mean of the CTs of the HK genes. Relative expression of the target genes was estimated using the formula: relative expression=2−^ΔCT, where ΔCT=CT (target gene)−CT (average of the 3 HK genes). The experiment was run in duplicate and mean values are analyzed.
Data analysis: The expression level of each gene in the treated sample was normalized to that of the untreated control. A significant change was defined when the gene expression either increases two-fold or more (>200%), or decreases to half or more (<50%). The rest is considered uninformative.

Nc1ccn([C@@H]2O[C@H](CO)[C@@H](O)C2(F)F)c(=O)n1 [gemcitabine]
AXIN2 gene expression (case #6): 517
BAX gene expression (case #6): 110
BNIP3L gene expression (case #6): 105
BRAF gene expression (case #6): 88
BRCA1 gene expression (case #6): 195
CCND1 gene expression (case #6): 85
CXCR4 gene expression (case #6): 0
CyclinB1 gene expression (case #6): 84
DCK gene expression (case #6): 91
EGFR gene expression (case #6): 74
ERCC1 gene expression (case #6): 150
FOS gene expression (case #6): 106
GADD45A gene expression (case #6): 75
GLI2 gene expression (case #6): 85
HIF1A gene expression (case #6): 102
HIF1B gene expression (case #6): 65
IGF1R gene expression (case #6): 82
IGFBP3 gene expression (case #6): 34
IHH gene expression (case #6): 122
MAP2K2 gene expression (case #6): 98
MAPK1 gene expression (case #6): 90
MAPK3 gene expression (case #6): 75
MDM2 gene expression (case #6): 81
MSLN gene expression (case #6): 101
NFKB1 gene expression (case #6): 83
NOTCH1 gene expression (case #6): 60
NOTCH2 gene expression (case #6): 79
PLK1 gene expression (case #6): 31
PSCA gene expression (case #6): 132
PTCH gene expression (case #6): 153
SHH gene expression (case #6): 116
Survivin gene expression (case #6): 145
TGFA gene expression (case #6): 101
VEGF gene expression (case #6): 91
VHL gene expression (case #6): 111
p21 gene expression (case #6): 122
AXIN2 gene expression (case #7): 41
BAX gene expression (case #7): 100
BNIP3L gene expression (case #7): 100
BRAF gene expression (case #7): 40
BRCA1 gene expression (case #7): 89
CCND1 gene expression (case #7): 127
CXCR4 gene expression (case #7): 5
CyclinB1 gene expression (case #7): 16
DCK gene expression (case #7): 102
EGFR gene expression (case #7): 151
ERCC1 gene expression (case #7): 153
FOS gene expression (case #7): 139
GADD45A gene expression (case #7): 96
GLI2 gene expression (case #7): 73
HIF1A gene expression (case #7): 115
HIF1B gene expression (case #7): 102
IGF1R gene expression (case #7): 28
IGFBP3 gene expression (case #7): 78
IHH gene expression (case #7): 81
JUN gene expression (case #7): 80
MAP2K2 gene expression (case #7): 131
MAPK1 gene expression (case #7): 93
MAPK3 gene expression (case #7): 167
MDM2 gene expression (case #7): 180
MSLN gene expression (case #7): 117
NOTCH1 gene expression (case #7): 104
NOTCH2 gene expression (case #7): 112
PLK1 gene expression (case #7): 98
PSCA gene expression (case #7): 91
PTCH gene expression (case #7): 63
RRM1 gene expression (case #7): 129
SHH gene expression (case #7): 57
Survivin gene expression (case #7): 85
TGFA gene expression (case #7): 131
VEGF gene expression (case #7): 115
VHL gene expression (case #7): 80
p21 gene expression (case #7): 134
AXIN2 gene expression (case #8): 81
BAX gene expression (case #8): 91
BNIP3L gene expression (case #8): 106
BRAF gene expression (case #8): 122
BRCA1 gene expression (case #8): 59
CCND1 gene expression (case #8): 107
CXCR4 gene expression (case #8): 342
CyclinB1 gene expression (case #8): 140
DCK gene expression (case #8): 99
EGFR gene expression (case #8): 91
ERCC1 gene expression (case #8): 98
FOS gene expression (case #8): 113
GADD45A gene expression (case #8): 147
GLI2 gene expression (case #8): 531
HIF1A gene expression (case #8): 113
HIF1B gene expression (case #8): 566
IGF1R gene expression (case #8): 101
IGFBP3 gene expression (case #8): 83
IHH gene expression (case #8): 137
MAP2K2 gene expression (case #8): 86
MAPK1 gene expression (case #8): 78
MAPK3 gene expression (case #8): 90
MDM2 gene expression (case #8): 65
MSLN gene expression (case #8): 98
NOTCH1 gene expression (case #8): 118
NOTCH2 gene expression (case #8): 122
PLK1 gene expression (case #8): 90
PSCA gene expression (case #8): 101
PTCH gene expression (case #8): 203
RRM1 gene expression (case #8): 104
SHH gene expression (case #8): 77
Survivin gene expression (case #8): 74
TGFA gene expression (case #8): 107
VEGF gene expression (case #8): 105
VHL gene expression (case #8): 101
p21 gene expression (case #8): 100
AXIN2 gene expression (case #9): 106
BAX gene expression (case #9): 92
BNIP3L gene expression (case #9): 95
BRAF gene expression (case #9): 93
BRCA1 gene expression (case #9): 161
CCND1 gene expression (case #9): 97
CXCR4 gene expression (case #9): 649
CyclinB1 gene expression (case #9): 115
DCK gene expression (case #9): 117
EGFR gene expression (case #9): 85
ERCC1 gene expression (case #9): 91
FOS gene expression (case #9): 83
GADD45A gene expression (case #9): 74
GLI2 gene expression (case #9): 99
HIF1A gene expression (case #9): 100
HIF1B gene expression (case #9): 107
IGF1R gene expression (case #9): 53
IGFBP3 gene expression (case #9): 42
IHH gene expression (case #9): 99
JUN gene expression (case #9): 92
MAP2K2 gene expression (case #9): 90
MAPK1 gene expression (case #9): 99
MAPK3 gene expression (case #9): 106
MDM2 gene expression (case #9): 92
MSLN gene expression (case #9): 107
NOTCH1 gene expression (case #9): 96
NOTCH2 gene expression (case #9): 101
PLK1 gene expression (case #9): 111
PSCA gene expression (case #9): 94
PTCH gene expression (case #9): 78
RRM1 gene expression (case #9): 73
SHH gene expression (case #9): 47
Survivin gene expression (case #9): 104
TGFA gene expression (case #9): 103
VEGF gene expression (case #9): 87
VHL gene expression (case #9): 110
p21 gene expression (case #9): 83
AXIN2 gene expression (case #10): 202
BAX gene expression (case #10): 91
BNIP3L gene expression (case #10): 97
BRAF gene expression (case #10): 65
BRCA1 gene expression (case #10): 62
CCND1 gene expression (case #10): 69
CXCR4 gene expression (case #10): 53
CyclinB1 gene expression (case #10): 89
DCK gene expression (case #10): 91
EGFR gene expression (case #10): 50
ERCC1 gene expression (case #10): 91
FOS gene expression (case #10): 96
GADD45A gene expression (case #10): 106
GLI2 gene expression (case #10): 30
HIF1A gene expression (case #10): 90
HIF1B gene expression (case #10): 76
IGF1R gene expression (case #10): 66
IGFBP3 gene expression (case #10): 96
IHH gene expression (case #10): 93
JUN gene expression (case #10): 82
MAP2K2 gene expression (case #10): 89
MAPK1 gene expression (case #10): 79
MAPK3 gene expression (case #10): 73
MDM2 gene expression (case #10): 86
MSLN gene expression (case #10): 90
NFKB1 gene expression (case #10): 78
NOTCH1 gene expression (case #10): 70
NOTCH2 gene expression (case #10): 101
PLK1 gene expression (case #10): 68
PSCA gene expression (case #10): 108
PTCH gene expression (case #10): 33
RRM1 gene expression (case #10): 92
SHH gene expression (case #10): 70
Survivin gene expression (case #10): 64
TGFA gene expression (case #10): 141
VEGF gene expression (case #10): 97
VHL gene expression (case #10): 74
p21 gene expression (case #10): 119

From patent US20090221522A1, “METHODS TO CORRECT GENE SET EXPRESSION PROFILES TO DRUG SENSITIVITY” (The Johns Hopkins University, priority 2008, published 2009)
